Columns and labels:
Type in all cases: cell-based
human hair follicles = assay: Inhibition of hair growth, in vitro cultivated hair follicles; conditions: conc. 0.01 % w/v
Description: The hair-growth-inhibiting effect of the sugar esters was determined by a method using in vitro cultivated human hair follicles in a growth medium. The growth of the hair follicles was tested in the presence and absence of fructose caprate. To this end, the hair follicles were incubated for 7 days at 37° C./5% CO2. The length of the cultivated hair follicles was recorded after 3 days and 7 days of cultivation. In a comparison example, the growth medium additionally contained 30 ng/ml IGF-1 insulin-like growth factor), a cytokine which stimulates hair follicle growth.
Each of the tests was carried out with 10 hair follicles of a donor (5 donors in all).
The results are set out in Table 9 and represent the mean values of the 50 hair follicles.

human keratinocytes [1] = assay: Growth inhibition on human keratinocytes with EGF; conditions: with EGF 10 ng/ml, 3 days, control = 100, control with EGF = 167
Description: Increased proliferation and differentiation of keratinocytes of the hair matrix leads to improved longer hair growth. The following test was carried out to determine the potential of the sugar esters for inhibiting hair growth which is visibly reflected in a reduction in the proliferation of human keratinocyte culture in vitro.
To this end, human keratinocytes were cultivated in a standard cell culture medium containing foetal calf serum (FCS). After incubation for 1 day at 37° C./5% CO2, the growth medium was replaced by standard medium containing 10 ng/ml epidermal growth factor (EGF) and various concentrations of sugar esters dissolved in ethanol (1% by volume).
After incubation for three days, the number of living cells was determined by determining the cell protein content by the Bradford method [Bradford, M. M., A rapid and sensitive method for the quantitation of microgram quantities of protein utilizing the principle of protein-dye binding. Anal. Biochem. (1977), Vol. 72, pp. 248-254].
The results of Table 8 represent the values of triple determinations on two batches expressed in % against a control of cell culture medium without sugar ester.

[2] = tested on: human leukaemic granulocytes; assay: Anti-inflammatory activity: respiratory burst of granulocytes (zymosan, luminol); conditions: + stimulation (zymosan), blank + stimulation = 100
Text: In the course of cutaneous inflammation, leucocytes, such as the polymorphonuclear neutrophilic granulocytes (PMNs) for example, are stimulated by peptides, such as cytokines for example, to emit messenger substances, such as leucotriene for example, which are released from activated or necrotic cells in the dermis. These activated PMNs release not only pro-inflammatory cytokinins, leucotrienes and proteases, but also ROS, such as superoxides and hypochlorite anions for example, of which the function is to destroy penetrated pathogenic germs or fungi. This activity of the PMNs during the inflammation is known as so-called respiratory burst. To investigate to what extent the test extracts can prevent or reduce the respiratory burst, a cell line of human leukaemic granulocytes of these PMNs was incubated together with the test substances at 37° C. and 5% by vol. CO2. After the respiratory burst had been initiated by addition of a yeast extract (zymosan) to the cell solution, the release of superoxide anions was determined through their reaction with luminol.

Staphylococcus aureus = assay: Agar diffusion method, inhibition zones; conditions: filter paper with 20 μl test substance; 18 to 24 h at 37° C.
Description: (§1) The antibacterial activity of the test substances was tested by the diffusion method on agar plates or the agar dilution method. In this method, a round filter paper of defined diameter is first impregnated with the test solution and then applied to the surface of an agar plate inoculated beforehand with the test microorganisms. The size of the inhibition zones is then determined after defined times. In particular, it is possible by this method to determine the MIC (Minimum Inhibitory Concentration) as the lowest concentration of test substance with which complete inhibition of the microorganisms can be obtained.
(§2) Agar diffusion method. The inoculum was prepared using a fresh culture in a stationary growth phase (after ca. 18-24 h) in a BHI solution (brain-heart Infusion). The bacterial suspension was adjusted to 0.5 MacFarland units, corresponding to 1.5 10^8 colony-forming units (cfu)/ml; the suspension was then diluted with a sodium chloride solution (1:100) to adjust a value of 1.5 10^6 cfu/ml. Mueller-Hinton agar (Staphylococcus epidermidis, Staphylococcus aureus) and Wilkins-Chalgrens agar containing 5% by weight sheep's blood (Propionibacterium acnes) were then sterilized for 15 mins. at 121° C. and then placed in Petri dishes. 2 to 4 ml of the bacterial suspension were then added to the Petri dishes, followed by drying at room temperature. The filter papers were impregnated with 20 μl of the test substances and applied to the surface of the agar plates. The inoculated Petri dishes were incubated for 18 to 24 h at 37° C. (the Petri dishes containing Propionibacterium acnes under anaerobic conditions) and the antimicrobial activity was then determined by determination of the growth inhibition zones. The results are set out in Table 10 and represent the diameters of the inhibition zones in mm.

[3] = tested on: Staphylococcus epidermidis; assay: Agar diffusion method, inhibition zones; conditions: filter paper with 20 μl test substance; 18 to 24 h at 37° C.
Description: as §1, §2

Propionibacterium acnes = assay: Agar diffusion method, inhibition zones; conditions: filter paper with 20 μl test substance; 18 to 24 h at 37° C., anaerobic
Description: as §1, §2

human keratinocytes [4] = assay: Protecting cells against UVB radiation (cell DNA, LDH and PGE2 release); conditions: + UV-B 50 mJ/cm^2; for Cell DNA: blank = 100, control + UV-B = 33; for LDH released / PGE2 released: control + UV-B = 100
Description: UVB was selected as the stress factor because the rays produce cutaneous inflammation (erythemas, oedemas) by activating enzymes that release arachidonic acid, such as phospholipase A2 (PLA2) for example. […] The influence of UVB rays on keratinocytes was determined in vitro through the release of cytoplasmatic enzymes, such as LDH (lactate dehydrogenase) for example, which runs parallel to the cell damage and the formation of PGE2. […] The quantity of keratinocytes was determined after trypsination via a cell counter while the LDH concentration was enzymatically determined. The results are set out in Table 4, where they are expressed as the activity in %-rel. against a standard, and represent the mean value of two test series involving double determination.

For Fructose caprate, the “Hair follicle growth, increase Day 3/day 0” value (human hair follicles; + IGF (30 ng/ml IGF-1), control +21%) was “+15%”, the “Hair follicle growth, increase Day 7/day 0” value (human hair follicles; + IGF (30 ng/ml IGF-1), control +45%) was “+25%” and the “Hair follicle growth, increase Day 3/day 0” value (human hair follicles; without IGF, control +15%) was “+12%”. The “Hair follicle growth, increase Day 7/day 0” value (human hair follicles; without IGF, control +32%) was “+21%”, the “Cell protein content in %” value (human keratinocytes [1]; conc. 0.001 % w/v) was 163% and the “Cell protein content in %” value (human keratinocytes [1]; conc. 0.003 % w/v) was 130%. The “Cell protein content in %” value (human keratinocytes [1]; conc. 0.01 % w/v) was 45%, the Cell counts ([2]; conc. 0.003 % w/v) was 97 %-rel and the ROS released ([2]; conc. 0.003 % w/v) was 87 %-rel. The Cell counts ([2]; conc. 0.01 % w/v) was 60 %-rel, the ROS released ([2]; conc. 0.01 % w/v) was 5 %-rel and the “Inhibition zones, Staphylococcus aureus” value (Staphylococcus aureus) was 10 mm. The “Inhibition zones, Staphylococcus epidermidis” value [3] was 9 mm, the “Inhibition zones, Propionibacterium acnes” value (Propionibacterium acnes) was 14 mm and the “Cell DNA” value (human keratinocytes [4]; conc. 0.001 % w/v) was 32 %-rel. The LDH released (human keratinocytes [4]; conc. 0.001 % w/v) was 68 %-rel, the PGE2 released (human keratinocytes [4]; conc. 0.001 % w/v) was 35 %-rel and the “Cell DNA” value (human keratinocytes [4]; conc. 0.003 % w/v) was 140 %-rel. It also gave an LDH released (human keratinocytes [4]; conc. 0.003 % w/v) of 0 %-rel and a PGE2 released (human keratinocytes [4]; conc. 0.003 % w/v) of 0 %-rel.
